# In PubChem BioAssay AID463204 (Broad Institute, 2010):
# The source made the active and inactive calls.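 The calls were made as follows: active = AC50 no more than ten times the top concentration tested, that is within one log above it; inconclusive = flat curve fit with activity between 30% and 70%, or invalid poor fit; inactive = AC50 beyond ten times the top tested dose.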
# System: S. cerevisiae Mot1-301 ts growth rescue, BacTiter-Glo ATP luminescence
# Assay: restored Mot1-301 yeast growth at 38.5C – whole organism, S. cerevisiae, Mot1-301 ts mutant, luminescence, dose retest, SUMOylation pathway inhibitor project, confirmation (AID 463204);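 also: growth at restrictive 38.5 degrees C of Mot1-301 OY566 strain; actives raise luminescence by restoring growth of the ts mutant at high temperature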
row,SMILES,AC50
1,CC1(OC(=O)CCc2ccccc2)C(=O)C=C2C=C(c3ccc(C#N)cc3)N(C3CCCC3)C=C2C1=O (stereo not drawn),> 42 µM (inactive)
2,O=C(CCc1ccccc1)NNC(=S)Nc1ccc(F)cc1,> 42 µM (inactive)
3,CCN1C(=S)N[C@@H](CCc2ccccc2)C(C(=O)OC)=C1C,> 42 µM (inactive)
4,CC1(C)Cc2c(cnn2-c2ccc(F)cc2)C(NC(=O)CCCN2CCCCC2=O)C1 (stereo not drawn),> 42 µM (inactive)
5,Cc1nc(N2CCN(c3ccccn3)CC2)c2c(C)c(C(=O)N3CCN(c4ccccc4F)CC3)sc2n1,> 42 µM (inactive)
6,CCN1C(=NCc2cccc(Cl)c2)N[C@@H](c2cccc(F)c2)C(C(=O)OC)=C1C,> 42 µM (inactive)
7,CCOc1c(Cl)cc(CNCC(O)c2ccccc2)cc1OC (stereo not drawn),> 42 µM (inactive)
8,Cc1ccc(S(=O)(=O)N(C)c2ccc(OC(=O)CN3C(=O)NC4(CCCC4)C3=O)cc2)cc1C,> 42 µM (inactive)
9,O=C(c1cccs1)N(C(=O)c1cccs1)c1ccc(Br)cn1,1.35 µM
10,COc1ccccc1-n1nnnc1SCC(=O)Nc1ccc(C)c(N)c1,> 42 µM (inactive)
11,CN(C)C(=O)c1c2c(nc3ccccc13)CCCC2,> 42 µM (inactive)
12,CSc1cccc(N2C(=O)C3CCCN3C2=S)c1 (stereo not drawn),> 42 µM (inactive)
13,S=C(Nc1ccc(Cl)cc1)N1CCN(Cc2ccccc2)CC1,> 42 µM (inactive)
14,Nc1cc(-c2ccc(Cl)cc2)nn1S(=O)(=O)c1ccc(Cl)cc1,> 42 µM (inactive)
15,COc1cccc(/C=N/n2cnc3ccccc32)c1OC,> 42 µM (inactive)
16,CCC(C)c1ccc(S(=O)(=O)N2CCN(C(=O)COc3ccc4c(C)cc(=O)oc4c3)CC2)cc1 (stereo not drawn),> 42 µM (inactive)
17,CC(=O)N1N=C(c2ccc(C(C)(C)C)cc2)OC1(C)C,> 42 µM (inactive)
18,O=S(=O)(Nc1cccc2cn[nH]c12)c1ccc(F)cc1,> 42 µM (inactive)
19,CCC(=O)N1c2ccc(S(=O)(=O)N3CCN(c4ccc([N+](=O)[O-])cc4)CC3)cc2CC1C (stereo not drawn),> 42 µM (inactive)
20,Cc1ccc(N2C(=O)C3N=NN(CC(=O)N4N=C(c5cccc6ccccc56)CC4c4ccccc4)C3C2=O)cc1 (stereo not drawn),> 21 µM (inactive)
21,CN(C)c1ccc(C(=O)N2CCCC(CCC(=O)N3CCN(c4ccccn4)CC3)C2)cc1 (stereo not drawn),> 42 µM (inactive)
22,COc1ccc(NC2CCCN(C(=O)c3csc(C)n3)C2)cc1 (stereo not drawn),> 42 µM (inactive)
23,CC(=O)c1cc(C)ccc1OC(=O)c1ccco1,> 42 µM (inactive)
24,c1ccc(OCCCc2nc(-c3cccnc3)no2)cc1,> 42 µM (inactive)
25,COc1ccc(C(=O)O)cc1S(=O)(=O)NCCN(C)C,> 42 µM (inactive)

row,SMILES,AC50
1,CCOC(=O)C1(Cc2cccc(OC)c2)CCCN(S(=O)(=O)c2cccnc2)C1 (stereo not drawn),> 42 µM (inactive)
2,O=C(CCCC(=O)N(CC(=O)NC1CCCC1)c1cccc(F)c1)Nc1ccccn1,> 42 µM (inactive)
3,COc1cccc(-c2nn(-c3ccccc3)cc2/C=C(/NC(=O)c2ccccc2)C(=O)O)c1,> 42 µM (inactive)
4,COc1ccccc1CNC(=O)[C@H](C)NC(=O)C1CCN(C(=O)[C@@H](N)CC(C)C)CC1,> 42 µM (inactive)
5,COCCn1c(SCC(=O)N2CCCC2)nnc1-c1ccoc1C,> 42 µM (inactive)
6,CCOC(=O)C1C(c2ccc(C)o2)NC(=O)NC1(O)C(F)(F)F (stereo not drawn),> 42 µM (inactive)
7,CC1(C)NC(=O)N(CCCOc2ccccc2Br)C1=O,> 42 µM (inactive)
8,Cn1c(NCc2ccco2)nc2c1c(=O)n(Cc1ccc(Cl)cc1)c(=O)n2C,> 42 µM (inactive)
9,COc1ccc(-c2csc(NC(=O)C3CSC4(C)CCC(=O)N34)n2)cc1 (stereo not drawn),> 42 µM (inactive)
10,CSc1ccc(Cl)c(C(=O)Nc2ccc(N3CCOCC3)cc2)c1,> 42 µM (inactive)
11,Cc1cccc2nc3ccccc3cc12,> 42 µM (inactive)
12,COC(=O)CN(C(=S)Nc1ccc(F)cc1)C1CC(=O)N(c2ccccc2)C1=O (stereo not drawn),> 42 µM (inactive)
13,On1c(-c2ccccc2Cl)nc2ncccc21,> 42 µM (inactive)
14,COc1ccc2cc(C(=O)Nc3ccc(Cl)cc3)sc(=O)c2c1OC,> 42 µM (inactive)
15,CCCCc1ccc(NC(=S)NCc2cccs2)cc1,41.9 µM
16,CC(=Nc1ccccc1)C1=C(O)CC(C)(C)CC1=O,> 42 µM (inactive)
17,CCC1=Nc2cc(C(=O)NCc3ccco3)ccc2Sc2ccccc21,> 42 µM (inactive)
18,COc1cccc(NC(=O)CNC(=O)c2ccc(C)cc2)c1,> 42 µM (inactive)
19,COc1cccc(/C=N/NC(=O)CCn2cnc3ccccc32)c1,> 42 µM (inactive)
20,CN(CC(=O)Nc1ccccc1Sc1ccccc1)Cc1nc2ccccc2c(=O)[nH]1,> 42 µM (inactive)
21,O=C(CSc1ncnc2nc[nH]c12)Nc1ccccc1C(F)(F)F,> 42 µM (inactive)
22,Cc1ccc(C2C(C(=O)c3cccs3)=C(O)C(=O)N2c2ccc(S(N)(=O)=O)cc2)cc1 (stereo not drawn),> 42 µM (inactive)
23,CC(C)C(=O)Nc1ccc(NC(=S)NC(=O)c2ccccc2F)cc1,> 42 µM (inactive)
24,COCCCn1c(=O)c2ccccc2n(Cc2ccccc2C)c1=O,> 42 µM (inactive)
25,CCn1nnc(-c2ccccc2NC(=O)c2cnccn2)n1,> 42 µM (inactive)

row,SMILES,AC50
1,COc1ccc(N2CCN(C(c3cccs3)C(C)NS(C)(=O)=O)CC2)cc1 (stereo not drawn),> 42 µM (inactive)
2,Cc1ccc(C(=O)c2cc([N+](=O)[O-])ccc2N2CCCCC2)cc1C,> 42 µM (inactive)
3,CC(C)(C)NC(=O)NC(=O)CN1CCN(S(=O)(=O)c2ccc3c(c2)OCCO3)CC1,> 21 µM (inactive)
4,O=C(NCCc1c[nH]c2ccccc12)c1cc(S(=O)(=O)N2CCCCC2)ccc1N1CCOCC1,> 42 µM (inactive)
5,COc1ccc(Oc2c(C)oc3cc(OC(=O)N(C)C)ccc3c2=O)cc1,> 42 µM (inactive)
6,O=[N+]([O-])c1ccc(-c2csc(N3CCc4ccccc4C3)n2)cc1,> 42 µM (inactive)
7,CCCCn1c(N)c(N(Cc2ccccc2OC)C(=O)c2c(CC)noc2C)c(=O)[nH]c1=O,> 42 µM (inactive)
8,COc1cc(SC)ccc1C(=O)Nc1cc(C)c(OCC(=O)N2CCOCC2)c(C)c1,> 42 µM (inactive)
9,COCCNC(=O)NC(=O)CSc1nc(C)c(C)c(C)n1,> 42 µM (inactive)
10,COc1ccc(NC(=O)C2CCN(c3cc(C)nc(-c4ccccc4)n3)CC2)cc1,> 42 µM (inactive)
11,COc1ccccc1CSc1ncc(-c2ccc([N+](=O)[O-])cc2)[nH]1,> 42 µM (inactive)
12,CC(C)n1c(CN(C)c2ccccc2)nc2ccccc21,> 42 µM (inactive)
13,O=C(CSc1cccc[n+]1[O-])N1CCc2ccccc21,> 42 µM (inactive)
14,COc1cccc(CN(C)CC2CCCN(CCc3ccc(Cl)cc3)C2)c1OC (stereo not drawn),> 42 µM (inactive)
15,O=S1(=O)NC(c2ccccc2)CC(CC2CCCCC2)O1 (stereo not drawn),38.7 µM
16,Cc1ccc(C(=O)/C=C/c2ccc(-c3ccccc3[N+](=O)[O-])o2)cc1,> 42 µM (inactive)
17,COC(=O)c1cc(N=Nc2c(C)[nH]c3ccccc23)cc(C(=O)OC)c1,> 42 µM (inactive)
18,COC(=O)c1ccccc1NC(=O)c1cnn2c(C)cc(C)nc12,> 42 µM (inactive)
19,O=C(CSc1nnc(-c2ccc(Br)cc2)o1)Nc1cccc2ccccc12,> 42 µM (inactive)
20,O=C1c2ccccc2S(=O)(=O)N1Cc1cc(=O)n2ccsc2n1,> 42 µM (inactive)
21,CCOc1ccc(Cn2c(SCCCCC#N)nc3c2c(=O)n(C)c(=O)n3C)cc1OCC,> 42 µM (inactive)
22,O=C(Nc1cnn(Cc2ccc(Cl)cc2)c1)c1ccc([N+](=O)[O-])cc1,> 42 µM (inactive)
23,COc1ccc(-c2cc(C#N)nc(N3CCN(c4ccccc4)CC3)n2)cc1,> 42 µM (inactive)
24,CC(=O)c1ccc(N=C2SCCCN2C(=O)C2CCCC2)cc1,> 42 µM (inactive)
25,COc1cccc(-c2ocnc2C(=O)Nc2ccc3c(c2)CCC3)c1,> 42 µM (inactive)

row,SMILES,AC50
1,CCOP(=O)(OCC)c1cc(CC)ccc1O,> 42 µM (inactive)
2,CC(C)(c1ccccc1)c1ccc(OCCN2CCOCC2)cc1,> 42 µM (inactive)
3,CCNc1ccc(S(=O)(=O)N(C)C)cc1NCC(=O)Nc1ccccc1Br,> 42 µM (inactive)
4,Cc1sc(-n2c(C)cc(C=C3C(=O)NC(=O)NC3=O)c2C)c(C#N)c1C,> 42 µM (inactive)
5,COC(=O)c1ccc(CSc2nc3ccccc3c(=O)n2CC(C)C)o1,> 42 µM (inactive)
6,Cc1cccc(N=C2C(=O)Nc3c(Cl)cccc32)c1,> 42 µM (inactive)
7,O=C(COC(=O)/C=C/c1ccco1)Nc1ncc(C(F)(F)F)cc1Cl,> 42 µM (inactive)
8,CC(=O)Nc1ccc(S(=O)(=O)N(C)CC(=O)Nc2ccc(Br)cc2F)cc1,> 42 µM (inactive)
9,COCCNC(=O)C(=O)N/N=C(\C)CC(=O)Nc1cccc(C(F)(F)F)c1,> 42 µM (inactive)
10,Oc1c(Br)cc(Br)cc1C=Nc1ccc2[nH]ncc2c1,4.76 µM
11,COc1ccccc1CNc1nc(SC)ncc1CO,> 42 µM (inactive)
12,CC12CCC(=O)N1C(C(=O)Nc1ccccc1F)CS2 (stereo not drawn),> 42 µM (inactive)
13,CCN(C(=O)Nc1ccccc1OC)c1c(N)n(Cc2ccccc2)c(=O)[nH]c1=O,> 42 µM (inactive)
14,COc1cc(C(=O)OCC(=O)NCc2ccccc2)cc(NC(=O)c2ccco2)c1OC,> 42 µM (inactive)
15,O=C(OC1CCOC1=O)c1cccc(S(=O)(=O)Nc2ccc(F)cc2)c1 (stereo not drawn),> 42 µM (inactive)
16,CCn1nc(C(=O)OCc2cccc(S(=O)(=O)N(C)C)c2)c2ccccc2c1=O,> 42 µM (inactive)
17,CC(=O)Oc1cccc(N2C(=O)c3ccc(C(=O)Nc4c[nH]c(=O)[nH]c4=O)cc3C2=O)c1,> 42 µM (inactive)
18,CC(=O)N1c2ccc([N+](=O)[O-])cc2NC(=O)CC1C (stereo not drawn),> 42 µM (inactive)
19,CC(=O)c1cccc(CN2CCCC(N3CCN(c4ccccc4F)CC3)C2)c1 (stereo not drawn),> 42 µM (inactive)
20,COc1ccc(N2C(=O)CSC2c2ccc([N+](=O)[O-])cc2)cc1 (stereo not drawn),> 42 µM (inactive)
21,CN(CCOc1ccc(Cl)cc1)CC(=O)Nc1ccc(OC(F)F)cc1,> 42 µM (inactive)
22,COc1ccc(N=C2SC(C(=O)O)CC(=O)N2Cc2ccc(OC)c(OC)c2)cc1 (stereo not drawn),> 42 µM (inactive)
23,O=C(O)C1C(C(=O)O)C2(Cl)C(Cl)=C(Cl)C1(Cl)C2(Cl)Cl (stereo not drawn),> 42 µM (inactive)
